Measurements: patent publication US6737383B1, “Herbicidal oxadiazolidines” (priority 1999, dated 2004)

Experiments:
bedstraw = assay: Test B pre/postemergence bedstraw; assay type: in vivo, Galium aparine
How it was run: (§1)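 Test chemicals in a non-phytotoxic solvent mixture with surfactant were sprayed preemergence onto planted seeds and postemergence onto plants 2 to 18 cm tall (1- to 4-leaf stage). After twelve to sixteen days in a greenhouse, injury was visually rated against untreated controls from 0 (no effect) to 10 (complete control).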

blackgrass = assay: Test B pre/postemergence blackgrass; assay type: in vivo, Alopecurus myosuroides
How it was run: as §1

surinam grass = assay: Test B pre/postemergence surinam grass; assay type: in vivo, Brachiaria decumbens
How it was run: as §1

cocklebur = assay: Test B pre/postemergence cocklebur; assay type: in vivo, Xanthium strumarium
How it was run: as §1

corn = assay: Test B pre/postemergence corn; assay type: in vivo, Zea mays
How it was run: as §1

crabgrass = assay: Test B pre/postemergence crabgrass; assay type: in vivo, Digitaria sanguinalis
How it was run: as §1

giant foxtail = assay: Test B pre/postemergence giant foxtail; assay type: in vivo, Setaria faberii
How it was run: as §1

morningglory = assay: Test B pre/postemergence morningglory; assay type: in vivo, Ipomoea hederacea
How it was run: as §1

soybean = assay: Test B pre/postemergence soybean; assay type: in vivo, Glycine max
How it was run: as §1

velvetleaf = assay: Test B pre/postemergence velvetleaf; assay type: in vivo, Abutilon theophrasti
How it was run: as §1

wheat = assay: Test B pre/postemergence wheat; assay type: in vivo, Triticum aestivum
How it was run: as §1

wild oat = assay: Test B pre/postemergence wild oat; assay type: in vivo, Avena fatua
How it was run: as §1

purple nutsedge = assay: Test B pre/postemergence purple nutsedge; assay type: in vivo, Cyperus rotundus
How it was run: as §1

rice = assay: Test B flood test rice; assay type: in vivo, Oryza sativa
How it was run: (§2)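 Plants were grown to the 2-leaf stage before treatment with test chemical, then held in a greenhouse for twelve to sixteen days. Injury was visually rated against untreated controls on a 0–10 scale, where 0 is no effect and 10 is complete control.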

smallflower flatsedge = assay: Test B flood test smallflower flatsedge; assay type: in vivo, Cyperus difformis
How it was run: as §2

duck salad = assay: Test B flood test duck salad; assay type: in vivo, Heteranthera limosa
How it was run: as §2

bamyardgrass = assay: Test B flood test barnyardgrass; assay type: in vivo, Echinochloa crus-galli
How it was run: as §2

[1] = Preemergence, Rate 62 g/ha, scale 0 to 10 (0 no effect, 10 complete control)
[2] = Preemergence, Rate 125 g/ha, 0 is no effect, 10 is complete control
[3] = Preemergence, Rate 250 g/ha, scale 0 to 10, 0 is no effect, 10 is complete control
[4] = Preemergence, Rate 500 g/ha, scale 0 to 10 (0 no effect, 10 complete control)
[5] = Postemergence, Rate 125 g/ha, scale of 0 to 10 where 0 is no effect and 10 is complete control
[6] = Rate 62 g/ha, Postemergence, scale of 0 to 10 where 0 is no effect and 10 is complete control
[7] = Rate 250 g/ha, Postemergence, scale 0 to 10, 0 is no effect, 10 is complete control
[8] = Rate 500 g/ha, Postemergence, scale 0 to 10
[9] = Postemergence, Rate 62 g/ha, scale 0 to 10, 0 is no effect, 10 is complete control
[10] = Postemergence (flood test species), Rate 125 g/ha, scale of 0 to 10 where 0 is no effect and 10 is complete control
[11] = Rate 62 g/ha, Postemergence section, flood test species, scale of 0 to 10 where 0 is no effect and 10 is complete control
[12] = Rate 250 g/ha, Postemergence (flood test), scale 0 to 10, 0 is no effect, 10 is complete control
[13] = Rate 250 g/ha, headed Pre-emergence (flood test species), scale 0 to 10 (0 no effect, 10 complete control)
[14] = Rate 500 g/ha, headed Pre-emergence (flood test species), scale 0 to 10 (0 no effect, 10 complete control)
[15] = Rate 500 g/ha, listed under Postemergence (flood test species), scale 0 to 10
[16] = Rate 1000 g/ha, Pre-emergence (as headed), scale 0 to 10
[17] = Rate 2000 g/ha, Pre-emergence (as headed), scale 0 to 10

Cc1cnn(C)c1-n1c(=O)on(C(=O)N(c2ccc(F)cc2)C(C)C)c1=O [Compound 125]
4: Soybean plant response rating (soybean; [5]) | Plant response rating, Soybean (soybean; [7]) | Soybean plant response rating (soybean; [8])
0: Bedstraw plant response rating (bedstraw; [1]) | Bedstraw plant response rating (0 to 10 scale) (bedstraw; [2]) | Bedstraw plant response rating (bedstraw; [3]) | Bedstraw plant response rating (bedstraw; [4]) | Bedstraw plant response rating (bedstraw; Rate 500 g/ha, Postemergence, scale 0 to 10, 0 no effect, 10 complete control) | Blackgrass plant response rating (blackgrass; [5]) | Blackgrass plant response rating (blackgrass; [1]) | Blackgrass plant response rating (0 to 10 scale) (blackgrass; [2]) | Blackgrass plant response rating (blackgrass; [4]) | Blackgrass plant response rating (blackgrass; [6]) | Plant response rating, Blackgrass (blackgrass; [7]) | Blackgrass plant response rating (blackgrass; [8]) | B. signalgrass plant response rating (surinam grass; [9]) | B. signalgrass plant response rating (surinam grass; [5]) | B. signalgrass plant response rating (surinam grass; [1]) | B. signalgrass plant response rating (0 to 10 scale) (surinam grass; [2]) | B. signalgrass plant response rating (surinam grass; [3]) | B. signalgrass plant response rating (surinam grass; [4]) | Plant response rating, B. signalgrass (surinam grass; [7]) | B. signalgrass plant response rating (surinam grass; Rate 500 g/ha, Postemergence, scale of 0 to 10 where 0 is no effect and 10 is complete control) | Cocklebur plant response rating (cocklebur; [5]) | Cocklebur plant response rating (cocklebur; [1]) | Cocklebur plant response rating (0 to 10 scale) (cocklebur; [2]) | Cocklebur plant response rating (cocklebur; [3]) | Cocklebur plant response rating (cocklebur; [4]) | Cocklebur plant response rating (cocklebur; [6]) | Plant response rating, Cocklebur (cocklebur; [7]) | Cocklebur plant response rating (cocklebur; [8]) | Corn plant response rating (corn; [5]) | Corn plant response rating (corn; [1]) | Corn plant response rating (0 to 10 scale) (corn; [2]) | Corn plant response rating (corn; [3]) | Corn plant response rating (corn; [4]) | Corn plant response rating (corn; [6]) | Plant response rating, Corn (corn; [7]) | Corn plant response rating (corn; [8]) | Crabgrass plant response rating (crabgrass; [5]) | Crabgrass plant response rating (crabgrass; [1]) | Crabgrass plant response rating (0 to 10 scale) (crabgrass; [2]) | Crabgrass plant response rating (crabgrass; [3]) | Crabgrass plant response rating (crabgrass; [4]) | Crabgrass plant response rating (crabgrass; [6]) | Plant response rating, Crabgrass (crabgrass; [7]) | Crabgrass plant response rating (crabgrass; [8]) | Giant foxtail plant response rating (giant foxtail; [5]) | Giant foxtail plant response rating (giant foxtail; [1]) | Giant foxtail plant response rating (0 to 10 scale) (giant foxtail; [2]) | Giant foxtail plant response rating (giant foxtail; [4]) | Giant foxtail plant response rating (giant foxtail; [6]) | Plant response rating, Giant foxtail (giant foxtail; [7]) | Giant foxtail plant response rating (giant foxtail; [8]) | Morningglory plant response rating (morningglory; [5]) | Morningglory plant response rating (morningglory; [1]) | Morningglory plant response rating (0 to 10 scale) (morningglory; [2]) | Morningglory plant response rating (morningglory; [3]) | Morningglory plant response rating (morningglory; [4]) | Morningglory plant response rating (morningglory; [6]) | Soybean plant response rating (soybean; [1]) | Soybean plant response rating (0 to 10 scale) (soybean; [2]) | Soybean plant response rating (soybean; [3]) | Soybean plant response rating (soybean; [4]) | Soybean plant response rating (soybean; [6]) | Velvetleaf plant response rating (velvetleaf; [5]) | Velvetleaf plant response rating (velvetleaf; [1]) | Velvetleaf plant response rating (0 to 10 scale) (velvetleaf; [2]) | Velvetleaf plant response rating (velvetleaf; [3]) | Velvetleaf plant response rating (velvetleaf; [4]) | Velvetleaf plant response rating (velvetleaf; [6]) | Plant response rating, Velvetleaf (velvetleaf; [7]) | Velvetleaf plant response rating (velvetleaf; [8]) | Wheat plant response rating (wheat; [5]) | Wheat plant response rating (wheat; [1]) | Wheat plant response rating (0 to 10 scale) (wheat; [2]) | Wheat plant response rating (wheat; [3]) | Wheat plant response rating (wheat; [4]) | Wheat plant response rating (wheat; [6]) | Plant response rating, Wheat (wheat; [7]) | Wheat plant response rating (wheat; [8]) | Wild oats plant response rating (wild oat; [5]) | Wild oats plant response rating (wild oat; [1]) | Wild oats plant response rating (0 to 10 scale) (wild oat; [2]) | Wild oats plant response rating (wild oat; [3]) | Wild oats plant response rating (wild oat; [4]) | Wild oats plant response rating (wild oat; [6]) | Plant response rating, Wild oats (wild oat; [7]) | Wild oats plant response rating (wild oat; [8]) | Nutsedge plant response rating (purple nutsedge; [5]) | Nutsedge plant response rating (purple nutsedge; [1]) | Nutsedge plant response rating (0 to 10 scale) (purple nutsedge; [2]) | Nutsedge plant response rating (purple nutsedge; [3]) | Nutsedge plant response rating (purple nutsedge; [4]) | Nutsedge plant response rating (purple nutsedge; [6]) | Plant response rating, Nutsedge (purple nutsedge; [7]) | Nutsedge plant response rating (purple nutsedge; [8]) | Rice plant response rating (rice; [10]) | Rice plant response rating (rice; [11]) | Plant response rating, Rice (rice; [12]) | Rice plant response rating (rice; [13]) | Plant response rating, Rice (rice; [14]) | Rice plant response rating (rice; [15]) | Rice plant response rating (rice; [16]) | Rice plant response rating (rice; [17]) | S. Flatsedge plant response rating (smallflower flatsedge; [10]) | S. Flatsedge plant response rating (smallflower flatsedge; Pre-emergence, Rate 1000 g/ha, scale 0 to 10 (0 no effect, 10 complete control)) | S. Flatsedge plant response rating (smallflower flatsedge; [11]) | Plant response rating, S. Flatsedge (smallflower flatsedge; [12]) | S. Flatsedge plant response rating (smallflower flatsedge; [13]) | Plant response rating, S. Flatsedge (smallflower flatsedge; [14]) | S. Flatsedge plant response rating (smallflower flatsedge; [15]) | S. Flatsedge plant response rating (smallflower flatsedge; [17]) | Ducksalad plant response rating (duck salad; [10]) | Ducksalad plant response rating (duck salad; [11]) | Plant response rating, Ducksalad (duck salad; [12]) | Ducksalad plant response rating (duck salad; [13]) | Plant response rating, Ducksalad (duck salad; [14]) | Ducksalad plant response rating (duck salad; [15]) | Ducksalad plant response rating (duck salad; [16]) | Ducksalad plant response rating (duck salad; [17]) | Barnyardgrass plant response rating (bamyardgrass; [10]) | Barnyardgrass plant response rating (bamyardgrass; [9]) | Plant response rating, Barnyardgrass (bamyardgrass; [12]) | Barnyardgrass plant response rating (bamyardgrass; [13]) | Plant response rating, Barnyardgrass (bamyardgrass; [14]) | Barnyardgrass plant response rating (bamyardgrass; Rate 500 g/ha, listed under Postemergence (flood test species), scale 0 to 10, 0 no effect, 10 complete control) | Barnyardgrass plant response rating (bamyardgrass; [16]) | Barnyardgrass plant response rating (bamyardgrass; Rate 2000 g/ha, Pre-emergence (as headed), scale 0 to 10, 0 no effect, 10 complete control)
2: Plant response rating, Morningglory (morningglory; [7]) | Morningglory plant response rating (morningglory; [8])
